Blank lines part the entries; values can stand above or below the compound they belong to.
Legend:
[1] = Storage stability of the tartrate salt (reanalysis by LC-MS, 1H NMR, 19F NMR); type: physicochemical
Description: The tartrate salt of the title compound was unstable at test storage conditions. Although the initial NMR spectra were clean, the LCMS purity was about 75%. After storage at 0° C. for six months, the sample was reanalyzed by ^1H-NMR, ^19F-NMR, and LC-MS.

human M3 mAChR = molecular target: T1, human M3 mAChR (Homo sapiens, UniProt P20309); assay: Whole-cell functional agonist activity, FLIPR Ca2+ release, U2OS-based human M3 mAChR stable cell line; conditions: for EC50: agonist, FLIPR Ca2+ release, U2OS human M3 cells; for Emax: top of curve, % activity vs MAX control ligand, FLIPR Ca2+
T1 construct: expressed in transfected cells
T1 sequence (P20309 whole entry): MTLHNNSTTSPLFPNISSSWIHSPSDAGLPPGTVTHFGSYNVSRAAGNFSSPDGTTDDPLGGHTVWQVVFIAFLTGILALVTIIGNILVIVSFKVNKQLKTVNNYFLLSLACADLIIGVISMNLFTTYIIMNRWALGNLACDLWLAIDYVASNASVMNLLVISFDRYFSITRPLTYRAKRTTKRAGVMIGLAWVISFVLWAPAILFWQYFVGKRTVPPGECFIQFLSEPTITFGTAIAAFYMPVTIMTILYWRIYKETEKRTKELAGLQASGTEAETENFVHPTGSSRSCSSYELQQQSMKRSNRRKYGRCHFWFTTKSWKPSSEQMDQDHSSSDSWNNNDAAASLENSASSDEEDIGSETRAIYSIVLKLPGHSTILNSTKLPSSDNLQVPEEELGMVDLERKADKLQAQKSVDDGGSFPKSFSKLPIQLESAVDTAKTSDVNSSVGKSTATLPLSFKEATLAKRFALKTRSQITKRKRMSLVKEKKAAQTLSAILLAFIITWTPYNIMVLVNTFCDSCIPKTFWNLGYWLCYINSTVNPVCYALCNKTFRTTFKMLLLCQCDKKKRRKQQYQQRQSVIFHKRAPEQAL
Excerpt: (§1) Whole-cell functional agonist activity in cells expressing recombinant human muscarinic receptor subtypes.
(§2) ThermoFisher's FLIPR™ (Fluorescence Imaging Plate Reader) was used to quantify Ca^2+ release, a functional effect associated with Gaq-coupled M1 and M5 mAChRs. CisBio's phospho-ERK (pERK) Thr202/Tyr204 was used to evaluate Gai/o-coupled M2 and M4 mAChRs responses.
One day before the assay, M1, M3, and M5 cells were thawed out and plated at 10,000 cells/well into black-walled, clear-bottom, Poly-D-lysine coated 384-well microplates and incubated at 37° C. and 5% CO2 in MEME+10% FBS+1× penicillin/streptomycin/glutamine, for the M1 and M3 cell lines and F-12+10% FBS+1× penicillin/streptomycin/glutamine for the M5 cell line. On the day of the test, the media was aspirated and replaced with […] fluo-4 dye loading buffer (1× dye, 1× additive A and 2.5 mM fresh probenecid in HBSS and 20 mM HEPES) and incubated at 37° C. and 5% CO2 for 45 minutes. After the incubation, cells were removed from the incubator, […] of HBSS and 20 mM HEPES was added for a total volume of […], and the cells were allowed to equilibrate at room temperature for 15 minutes in the dark before compounds were applied, by adding 4× compound solution in […] of HBSS, 0.4% DMSO and 20 mM HEPES buffer (made from a 10 mM compound stock solution in 100% DMSO), and responses were recorded for 2 minutes in FLIPR Tetra after compound administration. The M1 and M5 responses were analyzed using the CBIS data analysis suite (ChemInnovation, CA).
(§3) Percentage activity was calculated using the following formula: % Activity=100%×(mean RFU of test sample mean RFU of vehicle control)/(mean MAX RFU control ligand mean RFU of vehicle control) where RFU is relative fluorescence unit. The M2 and the M4 cells were thawed out one day before the assay and plated at 2,000 and 1,000 cells per well, respectively, in […] of DMEM/F12+10% FBS in ProxiPlate 384-well white-walled, white-bottom tissue culture-treated plates and incubated at 37° C. and 5% CO2 overnight. Before the assay, cells were serum-starved at 37° C. in 5% CO2 for 4 hours by replacing culture media with […] of F12 media with 8 mM HEPES. The pERK assay was run according to assay kit instructions with minor volume modifications outlined below.

[2] = Human liver microsome stability; type: in vitro ADME; conditions: human liver microsomes
Description: Human Liver Microsome Stability
Test compounds were dissolved in DMSO to prepare 10 mM stock solutions, diluted to a final test concentration of 100 nM, and incubated at 37° C. with human liver microsomes. Metabolic stability, expressed as a percent of the parent compound remaining, was assessed at 0, 15, 30, 45, and 60 minutes and calculated by comparing the compound's peak area at the time point relative to that at time-0. The half-life (T1/2) was estimated from the slope of the initial linear range of the logarithmic curve of compound remaining (%) vs. time, assuming first-order kinetics. The apparent intrinsic clearance (CLint, in μL/min/pmol, μL/min/mg or μL/min/Mcell) was calculated according to the following formula: CLint=0.693 T1/2*(mg protein/μL or million cells/μL or pmol CYP isoyme/μL).

human M5 mAChR = molecular target: T2, human M5 mAChR (Homo sapiens, UniProt P08912); assay: Whole-cell functional agonist activity, FLIPR Ca2+ release, CHOK1-based human M5 mAChR stable cell line; conditions: for Emax: top of curve, % activity vs MAX control ligand, FLIPR Ca2+
T2 construct: expressed in transfected cells
T2 sequence (P08912 1-532): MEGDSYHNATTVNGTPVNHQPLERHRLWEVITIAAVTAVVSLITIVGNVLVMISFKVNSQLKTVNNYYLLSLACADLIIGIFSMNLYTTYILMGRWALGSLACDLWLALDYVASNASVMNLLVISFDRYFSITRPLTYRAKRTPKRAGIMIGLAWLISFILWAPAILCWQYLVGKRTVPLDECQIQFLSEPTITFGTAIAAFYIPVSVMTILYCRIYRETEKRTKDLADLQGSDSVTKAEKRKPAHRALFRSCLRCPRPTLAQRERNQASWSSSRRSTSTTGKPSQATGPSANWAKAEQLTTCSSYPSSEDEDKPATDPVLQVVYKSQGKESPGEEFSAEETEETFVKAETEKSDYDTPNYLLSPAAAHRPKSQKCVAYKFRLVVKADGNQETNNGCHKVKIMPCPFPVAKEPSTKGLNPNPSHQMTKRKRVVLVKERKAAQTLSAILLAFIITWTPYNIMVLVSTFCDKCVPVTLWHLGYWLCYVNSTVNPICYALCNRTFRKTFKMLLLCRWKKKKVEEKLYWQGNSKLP
Excerpt: as §1, §2
(§4) One day before the assay, M1, M3, and M5 cells were thawed out and plated at 10,000 cells/well into black-walled, clear-bottom, Poly-D-lysine coated 384-well microplates and incubated at 37° C. and 5% CO2 in MEME+10% FBS+1× penicillin/streptomycin/glutamine, for the M1 and M3 cell lines and F-12+10% FBS+1× penicillin/streptomycin/glutamine for the M5 cell line. […] The M1 and M5 responses were analyzed using the CBIS data analysis suite (ChemInnovation, CA).
as §3

human M1 mAChR = molecular target: T3, human M1 mAChR (Homo sapiens, UniProt P11229); assay: Whole-cell functional agonist activity, FLIPR Ca2+ release, U2OS-based human M1 mAChR stable cell line
T3 construct: expressed in transfected cells
T3 sequence (P11229 1-460): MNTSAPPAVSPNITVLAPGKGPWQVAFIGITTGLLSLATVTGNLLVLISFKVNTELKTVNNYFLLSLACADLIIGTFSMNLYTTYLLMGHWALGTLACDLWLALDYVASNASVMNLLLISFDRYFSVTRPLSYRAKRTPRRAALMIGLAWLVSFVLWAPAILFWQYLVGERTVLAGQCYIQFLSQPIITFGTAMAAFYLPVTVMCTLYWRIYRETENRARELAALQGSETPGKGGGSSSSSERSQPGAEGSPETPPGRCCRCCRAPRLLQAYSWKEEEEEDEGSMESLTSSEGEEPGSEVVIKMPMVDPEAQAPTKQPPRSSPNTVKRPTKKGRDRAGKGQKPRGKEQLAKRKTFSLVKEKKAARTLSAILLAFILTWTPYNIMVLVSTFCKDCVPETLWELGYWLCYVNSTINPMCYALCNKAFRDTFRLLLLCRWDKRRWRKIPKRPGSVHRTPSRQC
Excerpt: as §1, §2, §4, §3

[3] = Pharmacokinetics following single oral dose administration in male Sprague-Dawley rats; type: in vivo; conditions: rat, oral administration of tartrate salts 25 mg/kg
Description: In-Vivo Assessment of Pharmacokinetics Following Oral Dose Administration in Male Sprague-Dawley Rats
Blood samples were collected from all animals in Groups 1-3 at 0.25, 0.5, 1, 2, 4, 6, 8, 12, and 24 hours post-dose, with each animal, bled at all time points. […] The slopes of the elimination phase of the concentrations vs. time curve used to calculate the T1/2 were determined by log-linear regression.
PK analyses were performed and validated using Phoenix® WinNonlin® version 8.0.

human M4 mAChR = molecular target: T4, human M4 mAChR (Homo sapiens, UniProt P08173); assay: Whole-cell functional agonist activity, phospho-ERK (pERK), CHOK1-based human M4 mAChR stable cell line; conditions: top of curve, % of min (DMSO) and max (10 mM Acetylcholine) responses
T4 construct: expressed in transfected cells
T4 sequence (P08173 1-479): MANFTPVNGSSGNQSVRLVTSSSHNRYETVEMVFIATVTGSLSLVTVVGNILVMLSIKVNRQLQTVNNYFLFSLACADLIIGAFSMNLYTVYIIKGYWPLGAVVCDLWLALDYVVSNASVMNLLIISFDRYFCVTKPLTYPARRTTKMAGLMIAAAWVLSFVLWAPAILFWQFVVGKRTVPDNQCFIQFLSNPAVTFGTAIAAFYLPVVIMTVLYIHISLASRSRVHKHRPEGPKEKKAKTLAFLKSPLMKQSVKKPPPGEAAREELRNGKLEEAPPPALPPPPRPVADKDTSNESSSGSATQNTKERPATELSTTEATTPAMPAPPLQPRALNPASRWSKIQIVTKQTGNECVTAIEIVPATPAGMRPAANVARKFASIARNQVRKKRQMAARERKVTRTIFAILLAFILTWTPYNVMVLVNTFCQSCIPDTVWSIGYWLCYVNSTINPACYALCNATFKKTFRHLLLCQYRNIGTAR
Description: as §1, §2, §3
(§5) Compound addition was carried out by adding 3× compound solution in […] of media with 0.3% DMSO (made from a 10 mM compound stock solution in 100% DMSO) for 5 minutes before the reaction was terminated by adding […] lysis and blocking solution. Cells were left in the lysis solution for 30 minutes before […] of antibody (Eu and d2) solution was added for an additional 2-hour incubation while protected from light. The plates were then read on laser Pherastar using the TR-FRET protocol.

human M2 mAChR = molecular target: T5, human M2 mAChR (Homo sapiens, UniProt P08172); assay: Whole-cell functional agonist activity, phospho-ERK (pERK), CHOK1-based human M2 mAChR stable cell line; conditions: top of curve, % of min (DMSO) and max (10 mM Acetylcholine) responses
T5 construct: expressed in transfected cells
T5 sequence (P08172 1-466): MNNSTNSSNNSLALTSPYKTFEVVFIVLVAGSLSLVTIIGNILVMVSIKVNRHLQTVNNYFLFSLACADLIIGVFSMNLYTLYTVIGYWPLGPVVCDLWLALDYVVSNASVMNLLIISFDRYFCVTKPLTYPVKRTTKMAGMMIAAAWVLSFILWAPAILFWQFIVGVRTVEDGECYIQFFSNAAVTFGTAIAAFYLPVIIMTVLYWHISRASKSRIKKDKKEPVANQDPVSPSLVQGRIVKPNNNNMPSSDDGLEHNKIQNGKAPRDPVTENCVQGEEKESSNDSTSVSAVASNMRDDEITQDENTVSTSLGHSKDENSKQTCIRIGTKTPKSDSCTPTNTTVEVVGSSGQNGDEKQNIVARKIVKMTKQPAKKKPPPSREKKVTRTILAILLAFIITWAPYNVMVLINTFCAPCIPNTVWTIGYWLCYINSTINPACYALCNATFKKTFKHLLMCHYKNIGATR
Description: as §1, §2, §3, §5

[4] = system: muscarinic acetylcholine receptor (mAChRs) human M1-M5 (hM1-hM5); conditions: pERK, CHO cells
Excerpt: In-Vitro Radioligand Binding Assays
The Flp-In™ cell lines are designed to generate stable cell lines that express a protein of interest from an Flp-In™ expression vector.
An extracellular signal-related kinase (ERK1/2 or p42/44) is a kinase in the mitogen-activated protein kinase (MAPK) family. Phosphorylation of ERK (pERK) can be used as a common endpoint measurement for the activation of many classes of G protein-coupled receptors (GPCR) and beta-arrestin linked signaling.
For the pERK assay, cells were serum-starved for 5 to 6 hours. Curves were normalized to the maximum response from the fetal bovine serum (FBS) medium corresponding to a 5-minute stimulation. A 5-minute incubation with the agonists was selected for the dose-response pERK assays (n=2).
Nonlinear regression curves were calculated per the three parameters method with no constraints.

Compound: FC(F)(F)CCCCCOc1nsnc1C1=CCCN(C(F)(F)F)C1 [Example 2, 3-((6,6,6-Trifluorohexyl)oxy)-4-(1-(trifluoromethyl)-1,2,5,6-tetrahydropyridin-3-yl)-1,2,5-thiadiazole]
storage stability of tartrate salt ([1]; six months of storage at 0° C., LC-MS, 1H NMR, 19F NMR): none of the title compound remained in the sample

Compound: [2H]C([2H])([2H])C([2H])([2H])C([2H])([2H])C([2H])([2H])C([2H])([2H])C([2H])([2H])Oc1nsnc1C1=CCCN(C)C1 [Xanomeline-d13, 3-((Hexyl-1,1,2,2,3,3,4,4,5,5,6,6,6-d13)oxy)-4-(1-methyl-1,2,5,6-tetrahydropyridin-3-yl)-1,2,5-thiadiazole]
agonist profile at hM3, hM5, hM2 [4]: modestly potent partial agonists at mAChRs hM3>hM5>hM2
agonist profile at hM4, hM1 [4]: efficacious partial agonist at hM4>hM1

Compound: [2H]C([2H])([2H])N1CCC=C(c2nsnc2OC([2H])([2H])C([2H])([2H])C([2H])([2H])C([2H])([2H])C([2H])([2H])C([2H])([2H])[2H])C1 [Xanomeline-d16, 3-((hexyl-1,1,2,2,3,3,4,4,5,5,6,6,6-d13)oxy)-4-(1-(methyl-d3)-1,2,5,6-tetrahydropyridin-3-yl)-1,2,5-thiadiazole]
agonist profile at hM3, hM5, hM2 [4]: modestly potent partial agonists at mAChRs hM3>hM5>hM2
agonist profile at hM4, hM1 [4]: efficacious partial agonist at hM4>hM1

Second part, led by results:

stability of tartrate salt preparation by LCMS ([1]; after 2 days): turned messy
Compound: CCCCCCOc1nsnc1C1=CCCN(C(F)(F)F)C1 [Example 3, 3-(Hexyloxy)-4-(1-(trifluoromethyl)-1,2,5,6-tetrahydropyridin-3-yl)-1,2,5-thiadiazole]

EC50 (human M3 mAChR): > 10000 nM
Emax (human M3 mAChR): 9%
microsomal CLint at 100 nM ([2]; apparent intrinsic clearance, no unit in table (μL/min/pmol, μL/min/mg or μL/min/Mcell)): 701 µL/min/mg
Parent at 60 min (%) ([2]; 100 nM, 37° C., tartrate salt): 1%
half-life at 100 nM ([2]; 100 nM, 37° C., tartrate salt): 10 min
EC50 (human M5 mAChR; agonist, FLIPR Ca2+ release, CHOK1 human M5 cells): 26.5 nM
Emax (human M5 mAChR): 87%
EC50 (human M1 mAChR; agonist, FLIPR Ca2+ release, U2OS human M1 cells): 4.2 nM
Emax (human M1 mAChR; top of curve, % activity vs MAX control ligand, FLIPR Ca2+): 90%
Compound: CCCC(F)(F)CCOc1nsnc1C1=CCCN(C)C1 [Example 10, 3-((3,3-Difluorohexyl)oxy)-4-(1-methyl-1,2,5,6-tetrahydropyridin-3-yl)-1,2,5-thiadiazole]

EC50 (human M3 mAChR): > 10000 nM
Emax (human M3 mAChR): 17%
Emax (human M5 mAChR): 92%
M4 Top (%) (human M4 mAChR): 100%
M2 Top (%) (human M2 mAChR): 1%
Compound: CCCCCCOc1nsnc1C1=CCCN(C)C1 [Xanomeline, 3-(hexyloxy)-4-(1-methyl-1,2,5,6-tetrahydropyridin-3-yl)-1,2,5-thiadiazole, reference compound]
plasma levels compared between treatments [3]: about mid-way between the levels of xanomeline-d16 and xanomeline-d13
